The text below walks through data of PubChem BioAssay (NCI).

What all share (assay): NCI tumour cell line growth inhibition, 48 h
Assay [1] concerns ACHN renal.
The test system of assay [2] is UACC-62 melanoma.
Assay [3] relates to M14 melanoma.
For assay [4], the system named is OVCAR-5 ovarian.
Assay [5] relates to U251 CNS.
Assay [6] has as its system PC-3 prostate.
In assay [7] the test system is K-562 leukemia.
Assay [8] concerns MALME-3M melanoma.
The subject of assay [9] is HCT-15 colon.
Assay [10] concerns UO-31 renal.

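1) Cells in 96-well plates. 2) Compound, 48 h, 5 concentrations. 3) Linear interpolation between surrounding doses. 4) Unreached endpoint = highest concentration. The concentration for 50% growth inhibition is given as GI50. TGI is the concentration that stops growth completely.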

Regarding `COc1ccc(/C=C/C(=O)C(=O)/C=C/c2ccc(OC)c(OC)c2)cc1OC`, the GI50 in [1] is 2050 nM; in [2], 1920 nM; in [3], 1690 nM; in assay [4], 2.5 µM; in [5] it was 1530 nM; in assay [6], 3.3 µM. The GI50 in assay [7] was 1.07 µM; in assay [8] it was 5.77 µM; in [9], 769 nM; in [10] it was 1.63 µM. Moreover, the TGI in [1] was 5.4 µM; in assay [2], 4.87 µM; in assay [3], 4.4 µM; in [4] it was 8.08 µM; in [5], 3.6 µM; in assay [6], over 100 µM. For the same molecule, the TGI in assay [7] is over 100 µM; in assay [8] it was 78.8 µM; in [9], 6.18 µM; in assay [10], 3.41 µM.

Consider `Cn1cc(Nc2nccc(-c3ccc4c(c3)CN(C3COC3)CC[C@H]4NC(=O)c3cn(C(C)(C)C)nn3)n2)cn1`, for which the GI50 in [1] is 66300 nM; in assay [2] it was 23100 nM; in assay [3], 36600 nM; in assay [4], 45.2 µM; in [5], over 100000 nM; in assay [6] it was over 100 µM. Further, the GI50 is 28 µM in assay [7], 38 µM in assay [8], over 100000 nM in [9] and 53.1 µM in assay [10]. In addition, the TGI in [1], in assay [2], in [3], in assay [4], in assay [5] and in assay [6] was over 100 µM throughout. For the same molecule, the TGI in [7], in assay [8], in assay [9] and in assay [10] was over 100 µM throughout.

Turning to `O=C(NNC1=NS(=O)(=O)c2ccccc2N1c1ccccc1)c1cnccn1`, the GI50 in assay [1] is over 100000 nM; in [2], over 100000 nM; in assay [3], over 100000 nM; in [5], over 100000 nM; in assay [6], over 100 µM; in assay [7], over 100 µM. Moreover, the GI50 in [8] is over 100 µM; in [9], 52200 nM; in assay [10], 67.4 µM. Moreover, the TGI in assay [1], in assay [2], in assay [3], in assay [5], in [6] and in [7] was over 100 µM each time. The TGI in [8], in assay [9] and in [10] was over 100 µM throughout.

Turning to `Cc1cc2c3c(nc4ccccc42)C(=O)c2cccnc2-c3n1`, the GI50 in [1] was 32.7 nM; in assay [2] it was 284 nM; in [3] it was 479 nM; in assay [4] it was 1.09 µM; in [5] it was 413 nM; in [6], 0.304 µM. The GI50 was 0.109 µM in [7], 0.426 µM in [8] and 15 nM in assay [9]. For the same molecule, the TGI in assay [1] is 1.45 µM; in assay [2], 0.936 µM; in [4], 2.33 µM; in [5], 6.93 µM; in assay [6] it was 3.04 µM; in assay [7], 0.345 µM. Further, the results for the TGI in [8] and in assay [9] were 1.39 µM and 0.162 µM, respectively.

`COc1cc(C(=O)/C=C/c2cccnc2Nc2ccc(Cl)cc2)cc(OC)c1OC`: the GI50 in assay [1] is 1770 nM; in assay [2], 1540 nM; in assay [3] it was 1750 nM; in assay [4], 1.74 µM; in assay [5] it was 1250 nM; in assay [6], 1.44 µM. Also, the GI50 is 1.91 µM in assay [8], 1490 nM in [9] and 1.32 µM in [10]. The TGI in assay [1] worked out at 3.18 µM; in [2], 2.98 µM; in [3] it was 3.22 µM; in assay [4], 3.32 µM; in assay [5], 2.54 µM; in [6] it was 3.33 µM. In addition, the TGI in assay [8] came out at 3.65 µM; in assay [9], 3.48 µM; in [10] it was 2.7 µM.

For the molecule `N#Cc1ncc(-c2ccc(C(F)(F)F)cc2)c(NC2CCCCCC2)n1`, the GI50 in [1] is 24000 nM; in assay [2] it was 24500 nM; in [3], 38500 nM; in assay [4] it was over 100 µM; in assay [6] it was 5.67 µM; in assay [7] it was 9.03 µM. Moreover, the GI50 in assay [8] was over 100 µM; in assay [9], 8530 nM; in assay [10], 12 µM. The TGI in assay [1], in assay [2], in assay [3], in [4], in assay [6] and in assay [7] was over 100 µM in each case. Besides, the TGI in [8], in assay [9] and in [10] was over 100 µM each time.

In the case of `CN1C(=O)[C@@H](CC2CCCC2)N(C2CCCC2)c2nc(Nc3cc(Cl)c(O)c(Cl)c3)ncc21`, the GI50 is 18700 nM in assay [1]; 11100 nM in assay [2]; 22200 nM in assay [3]; 27.7 µM in assay [4]; 21600 nM in assay [5]; 14.1 µM in [6]. The GI50 in assay [7] is 14.6 µM; in assay [8], 20.7 µM; in [9], 14600 nM. Also, the TGI in assay [1] was over 100 µM; in assay [2], 27.4 µM; in [3] it was over 100 µM; in assay [4], over 100 µM; in assay [5] it was 86.9 µM; in assay [6] it was over 100 µM. In addition, the TGI in assay [7] was over 100 µM; in assay [8], 75.2 µM; in assay [9], 56.2 µM.

For the molecule `Oc1c(Cl)cc(Cl)c(Cl)c1Cc1c(O)c(Cl)cc(Cl)c1Cl`, the GI50 was 2270 nM in assay [1]; 335 nM in assay [2]; 1380 nM in assay [3]; 6.14 µM in [4]; 1090 nM in assay [5]; 0.498 µM in assay [6]. Moreover, the GI50 was 1.66 µM in assay [8], 528 nM in assay [9] and 2.18 µM in assay [10]. The TGI in assay [1] came out at 31.3 µM; in [2], 12 µM; in assay [3], 13.9 µM; in [4], 19.1 µM; in assay [5] it was 12.7 µM; in assay [6], 10.6 µM. Moreover, the values for the TGI in assay [8], in [9] and in [10] were 5.93 µM, 13.7 µM and 11.8 µM, respectively.
